Assays:
[1] = tested on: Human keratinocytes (NHEK-Neo Pooled); test: Human keratinocyte growth inhibition assay; assay type: cell-based; conditions: 48 h, culture for 2 days, Cell Counting Kit-8
Protocol: Human Keratinocyte Growth Inhibition Assay
The measurement of a human keratinocyte growth inhibitory effect was carried out by modifying the method of Schafer et al. (British Journal of Pharmacology, 159, 842 (2011)).
Human keratinocytes (NHEK-Neo Pooled, manufactured by Lonza Group AG, Cat. No. 00192906) were cultured in KGM-Gold Bullet Kit (manufactured by Lonza Group AG, Cat. No. 00192060) and inoculated at 2.0×10^3 cells/well to a 96-well plate. After overnight culture in a carbon dioxide incubator, a test compound dissolved in DMSO (final DMSO concentration: 0.1%) was added and left standing in a carbon dioxide incubator. After culture for 2 days, the absorbance thereof was measured by using Cell Counting Kit-8 (343-07623 manufactured by Dojindo Laboratories)).
The rate of inhibition of cell growth at each concentration was calculated from the test compound concentration and the absorbance of Cell Counting Kit-8, and the concentration of the test compound necessary for inhibiting 50% of cell growth (IC50 value) was calculated by using EXSUS (version 8.0.0 or version 8.0.1, manufactured by CAC Exicare Corp.).

[2] = tested on: IL-6 production in rat adjuvant arthritis model; test: IL-6 production inhibition test in rat adjuvant arthritis model; assay type: in vivo, LEW rats; conditions: single dose, left ankle, read-out: rate of inhibition of IL-6 production; for inhibition in vivo at 3 mg/kg: administration of 3 mg/kg
Protocol: IL-6 Production Inhibition Test in Rat Adjuvant Arthritis Model
A single-dose drug efficacy test using rat adjuvant arthritis models was carried out by modifying the method of Magari. K et al. (J. Rheumatol. 30 (10), 2193 (2003)).
LEW rats (female, supplied by Charles River Laboratories Japan, Inc.) were used as laboratory animals. An adjuvant prepared from heat-killed bacteria of Mycobacterium butyricum (264010 manufactured by Difco Laboratories Ltd.) and liquid paraffin (manufactured by Wako Pure Chemical Industries, Ltd., Code No. 128-04375) was subcutaneously administered as a phlogogenic material to the right hind leg footpads of the rats under inhalation anesthesia with isoflurane (manufactured by Wako Pure Chemical Industries, Ltd., Code No. 099-06571) to prepare arthritis models. Approximately 2 weeks later, left paw edema was measured with a paw volume meter (model TK-101CMP manufactured by Unicorn Co., Ltd.), and grouping was performed such that the average volume of left paw edema was equal among groups. A test compound or only a solvent was administered, after a certain time, they were sacrificed by exsanguination from the abdomens under isoflurane anesthesia, and the left ankles were collected, chopped, and frozen by using liquid nitrogen. The collected left ankle portions were disrupted in CRYOPress (model CP-100WP manufactured by Microtec Co., Ltd.), then supplemented with a buffer solution, shaken overnight at 4° C., and then centrifuged to collected a supernatant. The preparation of the buffer solution was performed by mixing a Tris buffer solution (pH 7.4), sodium chloride (NaCl), phenyl methyl sulfonyl fluoride (PMSF), Triton X-100, EDTA-free complete tablets (manufactured by F. Hoffmann-La Roche, Ltd., REF. 11 873 580 001), and Otsuka distilled water (manufactured by Otsuka Pharmaceutical Co., Ltd., product No. 1323). IL-6 in the collected supernatant was measured by using a sandwich ELISA kit (manufactured by R&D Systems, Inc., Catalog No. S6050).
The IL-6 content of each sample was calculated from the calibration curve of Standard IL-6 included in the kit. When the amount of IL-6 produced in the solvent administration control group was defined as 100%, the rate of inhibition of IL-6 production (%) at each dose of the test compound was calculated.

[3] = tested on: IL-17 production in human PBMC-derived T cells; test: Human PBMC various-stimulant cocktail-induced IL-17 production inhibition test; assay type: cell-based; conditions: 120 h; human T-cell suspension from PBMC, cocktail of various stimulants, incubation for 5 days, ELISA
From the text: Human PBMC Various-Stimulant Cocktail-Induced IL-17 Production Inhibition Test
PBMC was separated and collected by using Ficoll-Paque (17-1440-02 manufactured by GE Healthcare Japan Corp.) from blood collected from healthy human adult in the presence of heparin. The collected PBMC was further cultured in a flask for a certain time, and then, non-adherent cells in the supernatant were collected and used as a T-cell suspension. RPMI1640 medium (manufactured by GIBCO/Thermo Fisher Scientific, Inc., REF. 11875), which is containing 10% FBS (manufactured by GIBCO/Thermo Fisher Scientific, Inc., REF. 10082), 1% penicillin/streptomycin/amphotericin B (manufactured by GIBCO/Thermo Fisher Scientific, Inc., REF. 15240-096), 1% nonessential amino acids (manufactured by GIBCO/Thermo Fisher Scientific, Inc., REF. 11140-050), and 1% pyruvic acid (manufactured by GIBCO/Thermo Fisher Scientific, Inc., REF. 11140) and containing a test compound dissolved in DMSO, 2 μg/mL (final concentration) CD28 antibody (manufactured by BioLegend, Inc., Cat. No. 302914), 10 μg/mL (final concentration) human IFN-γ antibody (manufactured by BD Biosciences, Cat. No. 554698), 10 μg/mL (final concentration) human IL-4 antibody (manufactured by BD Biosciences, Cat. No. 554481), 20 ng/mL (final concentration) human IL-6 (manufactured by BioLegend, Inc., Cat. No. 570802), 10 ng/mL (final concentration) human IL-23 (manufactured by BioLegend, Inc., Cat. No. 574102), 10 ng/mL (final concentration) human IL-1(3 (manufactured by PeproTech Inc., Cat. No. 200-01B), and 10 ng/mL (final concentration) human TGF-13 (manufactured by BioLegend, Inc., Cat. No. 580702), was added at 100 μL/well to T cell Activation Plate Anti-Human CD3 96-well plate (manufactured by Corning Inc., REF. 354725). Subsequently, 100 μL of a T-cell suspension adjusted to 2×10^5 cells/mL was added to each well (final DMSO concentration: 0.1%). Only DMSO was added to wells in the absence of the test compound. After incubation for 5 days in a carbon dioxide incubator, the culture supernatant was collected and stored at −20° C. until IL-17 content measurement.
In the IL-17 content measurement in the culture supernatant, a sandwich ELISA kit (Quantikine Human IL-17, manufactured by R&D Systems, Inc.) was used. The IL-17 content of each sample was calculated from the calibration curve of Standard IL-17 included in the kit. When the amount of IL-17 produced by the cocktail of various stimulants in the case of the addition of only DMSO was defined as 100%, the rate of inhibition of IL-17 production at each concentration of the test compound was calculated. The concentration of the test compound necessary for inhibiting 50% of IL-17 production (IC50 value) was calculated from the concentration of the added test compound and the rate of inhibition of IL-17 production by the test compound by using EXSUS (version 8.0.0 or version 8.0.1, manufactured by CAC Exicare Corp.).

SMILES	IC50 [1] [µM]	inhibition in vivo at 3 mg/kg [2] [%]	inhibition in vivo at 10 mg/kg ([2]; administration of 10 mg/kg) [%]	IC50 [3] [µM]
CCOC[C@@H](NC(=O)N1Cc2c(NC(=O)C3([Si](C)(C)C)CCC3)n[nH]c2C1(C)C)c1ccccc1 [IV-139, (S)—N-(2-Ethoxy-1-phenylethyl)-6,6-dimethyl-3-[1-(trimethylsilyl)cyclobutanecarboxamido]-4,6-dihydropyrrolo[3,4-c]pyrazole-5(1H)-carboxamide]	≤ 0.5	≥ 50	–	–
CC(C)(O)[C@@H](NC(=O)N1Cc2c(NC(=O)C3([Si](C)(C)C)CCC3)n[nH]c2C1(C)C)c1ccccc1 [IV-171, (S)—N-(2-Hydroxy-2-methyl-1-phenylpropyl)-6,6-dimethyl-3-[1-(trimethylsilyl)cyclobutanecarboxamido]-4,6-dihydropyrrolo[3,4-c]pyrazole-5(1H)-carboxamide]	≤ 0.5	–	≥ 50	–
CC1(C)c2[nH]nc(NC(=O)C3([Si](C)(C)C)CCC3)c2CN1C(=O)N[C@H](CCO)c1ccccc1 [IV-227, (R)—N-(3-Hydroxy-1-phenylpropyl)-6,6-dimethyl-3-[1-(trimethylsilyl)cyclobutanecarboxamido]-4,6-dihydropyrrolo[3,4-c]pyrazole-5(1H)-carboxamide]	≤ 0.5	≥ 50	–	–
CC(C)(O)C[C@@H](NC(=O)N1Cc2c(NC(=O)C3([Si](C)(C)C)CCC3)n[nH]c2C1(C)C)c1ccccc1 [IV-299, (R)—N-(3-Hydroxy-3-methyl-1-phenylbutyl)-6,6-dimethyl-3-[1-(trimethylsilyl)cyclobutanecarboxamido]-4,6-dihydropyrrolo[3,4-c]pyrazole-5(1H)-carboxamide]	≤ 0.5	≥ 50	–	≤ 0.05
